US10781472B2, “Systems and methods for determining cyclic nucleotide concentration and related pathway activation” (PROMEGA CORPORATION, priority 2005, dated 2020)
One block for each molecule: values may come before it.

Assays:
[1] = molecular target: dopamine receptor D1 (DRD1) (Homo sapiens, UniProt P21728); conditions: 1 μg DRD1 plasma membranes, 15 min induction (FIG. 10)
Protocol: Plasma membranes (1 μg of protein in 25 μl of Stimulation Buffer) and 10 μM GDP were added to the wells of a 96-well plate and incubated at room temperature for 10 minutes. Twenty microliters of each compound dilution was added to specific wells. Induction was carried out for 15 minutes at room temperature followed by addition of 40 μl of PKA/Substrate Reagent. The reactions were allowed to incubate for an additional 20 minutes at room temperature followed by addition of 80 μl of Kinase-Glo™ Reagent. Luminescence was read 10 minutes after addition of the Kinase-Glo™ Reagent and output was recorded as relative light units (RLU) and plotted against forskolin concentration using GraphPad Prism® Software Version 4.0.

phosphodiesterase PDE V = phosphodiesterase PDE V (Homo sapiens, UniProt O76074); test: cGMP-PDE (PDE V) activity in the presence of inhibitor, PKA/Kinase-Glo luminescence; type: biochemical; conditions: 15 U PDE V, cGMP substrate, 30 min (FIG. 7B)
Protocol: A two-fold serial dilution of Zaprinast (20 μM) was made in Stop Buffer without IBMX and ATP, supplemented with 10 μM cGMP. An enzyme solution containing PDE V was also made so that every 12.5 μl of the enzyme solution contained 15 U (Stop Buffer without IBMX and ATP) of the enzyme. An aliquot (12.5 μl) of each dilution was added to the reaction wells and an equal amount of the phosphodiesterase PDEV enzyme solution was added to start the reaction. The plate was incubated for 30 min. at room temperature, followed by addition of 12.5 μl of Stop Buffer supplemented with 1.5 mM IBMX and 4 μM ATP to stop the reaction. An equal volume of a PKA/substrate reagent containing 100 ng/well Holoenzyme-R-II α protein kinase A, 40 μM Kemptide, 40 mM Tris HCl pH 7.5, 20 mM MgCl2, and 0.1 mg/ml BSA was added to each well, the plate was incubated for an additional 20 min., and 50 μl of Kinase-Glo™ Reagent was added.

[2] = molecular target: T1, Holoenzyme-R-II α protein kinase A (Homo sapiens, UniProt P13861); test: Side by side titration of cAMP and cGMP for activation of PKA; type: biochemical; conditions: FIG. 6
T1 construct: purchased BIAFFIN GmbH & Co., Kassel, Germany
Protocol: Two-fold serial dilutions of cAMP and cGMP (initial concentration of both 40 μM) were made in Stop Buffer without ATP and IBMX, but supplemented with 2 μM ATP. Twenty-five μl of the dilutions were aliquoted into white 96-well plates, followed by the addition of 25 μl of a PKA/substrate reagent containing 100 ng/well Holoenzyme-R-II α protein kinase A, 20 μM Kemptide, 40 mM Tris HCl pH 7.5, 20 mM MgCl2, and 0.1 mg/ml BSA. The reactions were allowed to incubate for 20 min. at room temperature, and 50 μl of Kinase-Glo™ Reagent was added followed by an additional 10 min. incubation. Luminescence was measured 10 min. after addition of the Kinase-Glo™ Reagent and output was recorded as RLUs (n=2) and plotted against cyclic nucleotide (cNMP) concentration using GraphPad Prism® Software Version 4.0.

T1 sequence (P13861 whole entry): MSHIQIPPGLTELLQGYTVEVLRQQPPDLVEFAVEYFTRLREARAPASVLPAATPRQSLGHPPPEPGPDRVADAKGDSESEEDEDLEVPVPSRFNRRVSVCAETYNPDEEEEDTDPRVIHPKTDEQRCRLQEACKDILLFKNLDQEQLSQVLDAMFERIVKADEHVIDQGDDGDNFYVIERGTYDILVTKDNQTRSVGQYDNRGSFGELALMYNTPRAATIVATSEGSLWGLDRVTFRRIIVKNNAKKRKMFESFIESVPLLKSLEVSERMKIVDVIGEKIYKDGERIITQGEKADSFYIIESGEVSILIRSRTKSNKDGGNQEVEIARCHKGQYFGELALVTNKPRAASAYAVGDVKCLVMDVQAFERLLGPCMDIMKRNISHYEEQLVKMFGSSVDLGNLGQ
dopamine receptor D1 (DRD1), sequence (P21728 whole entry): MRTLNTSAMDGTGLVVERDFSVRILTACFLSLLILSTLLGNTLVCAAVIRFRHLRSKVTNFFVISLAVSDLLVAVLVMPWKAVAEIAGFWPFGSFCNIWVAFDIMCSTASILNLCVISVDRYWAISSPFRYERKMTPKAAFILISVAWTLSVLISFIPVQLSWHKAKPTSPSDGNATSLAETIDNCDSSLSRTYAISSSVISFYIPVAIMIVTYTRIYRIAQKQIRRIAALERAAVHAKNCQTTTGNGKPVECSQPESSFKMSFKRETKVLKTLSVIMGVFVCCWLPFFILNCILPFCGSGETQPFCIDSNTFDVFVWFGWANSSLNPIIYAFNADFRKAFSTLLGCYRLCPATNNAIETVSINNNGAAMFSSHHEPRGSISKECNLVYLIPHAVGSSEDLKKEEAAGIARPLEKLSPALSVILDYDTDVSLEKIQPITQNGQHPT

SMILES: Oc1cc2c(cc1O)C(c1ccccc1)CNCC2 (stereo not drawn) [SKF38393, 1-Phenyl-2,3,4,5-tetrahydro-(1H)-3-benzazepine-7,8-diol]
luminescent signal as agonist concentration increases (DRD1 activation) [1]: luminescent signal decreases

relative light units as inhibitor amount increases (PDE V inhibition) (phosphodiesterase PDE V): relative light units decrease
SMILES: CCCOc1ccccc1-c1nc2nn[nH]c2c(=O)[nH]1 [Zaprinast]

binding to regulatory subunits of PKA, affinity relative to cAMP [2]: lower affinity than that of cAMP
SMILES: Nc1nc2c(ncn2[C@@H]2O[C@@H]3COP(=O)(O)O[C@H]3[C@H]2O)c(=O)[nH]1 [cGMP, guanosine 3′, 5′cyclic monophosphate]
